# Experiments:
# flies (family Muscidae) [1] = test: Anti-procreant comparison tests (sexual sterility or oviposition inhibition); format: in vivo; conditions: for inducing sexual sterility or inhibiting oviposition: comparison tests, Examples 6-9; for activity in the method of the invention (ineffective compounds): general statement of the description
# Procedure: (§1) The compound to be tested was administered in a standard fly food containing 6 parts of sugar, 6 parts of powdered non-fat dry milk, and 1 part of powdered egg yolk. Treated food was prepared by mixing an appropriate amount of a solution or suspension of CBCP in acetone with a batch of the food. The acetone was evaporated (4-6 hours) and the dry material was repulverized.
# Oviposition inhibition tests: Samples of treated food with a container of water were placed in cages containing 100 newly-emerged adult flies (family Muscidae). After the flies had been exposed to the treated diet for 6-7 days, 1/2 inch of moist standard fly larva-rearing medium (CSMA) in souffle cups was placed in the cages for oviposition. After 4-6 hours, the cup was removed and examined for eggs. If no eggs were laid, the medium was offered again at intervals of 1 or 2 days until it had been offered three times or the flies had oviposited.
# (§2) Chemosterilancy tests: If eggs were laid in the above tests, the cups were filled with water and stirred to break up the egg masses. A random sample of 100 eggs from each cup was collected and placed on a small piece of black cloth which was then laid on top of moist larva-rearing medium in a rearing container. Observations were made to determine percentage of egg hatch and pupal development.
# These flies were maintained on untreated fly food. After 5 days, cups containing the larval-rearing medium was provided as previously described and a 100-egg sample was collected and place on moist larve-rearing medium. About a week after oviposition, examination was made to determine the percentage of hatched eggs and of pupae developed.
# For purpose of comparison the above-described tests were applied to 2-benzyl-4-t-butylphenol and 2-(α-methylbenzyl)-4-t-butylphenol.
# For purposes of comparison the above-described tests were applied to 2,6-di-t-butyl-4-(4-methoxybenzyl) phenol and 2,6-di-t-butyl-4-(α-methyl-4-methoxybenzyl)phenol, both compounds being ineffective in inducing sexual sterility or in inhibiting oviposition.
# For purposes of comparison the following compounds were tested and found to be ineffective in inducing sexual sterility or in inhibiting oviposition: 2-(4-methoxybenzyl)-3,4-methylenedioxyphenol, (α-methylbenzyl)-3,4-methylenedioxy-6-methoxybenzene, (α,α-dimethylbenzyl)-3,4-methylenedioxy-6-methoxybenzene, (α,α-dimethylbenzyl)-3,4-methylenedioxy-6-ethoxybenzene, (α,α-dimethylbenzyl)-3,4-methylenedioxy-6-n-propoxybenzene, (α,α-dimethylbenzyl)-3,4-methylenedioxy-6-n-butoxybenzene, (α,α-dimethylbenzyl)-3,4-methylenedioxy-6-n-pentoxybenzene, (α-vinylbenzyl)-3,4-methylenedioxy-6-methoxybenzene, (α-vinylbenzyl)-3,4-methylenedioxy-6-ethoxybenzene, (α-vinylbenzyl)-3,4-methylenedioxy-6-n-propoxybenzene.
# flies (family Muscidae) [2] = test: Oviposition inhibition tests (treated fly food; Examples 6-9); format: in vivo
# Procedure: The compound to be tested was administered in a standard fly food containing 6 parts of sugar, 6 parts of powdered non-fat dry milk, and 1 part of powdered egg yolk. Treated food was prepared by mixing an appropriate amount of a solution or suspension of CBCP in acetone with a batch of the food. The acetone was evaporated (4-6 hours) and the dry material was repulverized. Oviposition inhibition tests: Samples of treated food with a container of water were placed in cages containing 100 newly-emerged adult flies (family Muscidae). After the flies had been exposed to the treated diet for 6-7 days, 1/2 inch of moist standard fly larva-rearing medium (CSMA) in souffle cups was placed in the cages for oviposition. After 4-6 hours, the cup was removed and examined for eggs. […] The procedure outlined in Example 6 was followed using a Group II compound. The procedure outlined in Example 6 was followed using Group III compounds. The results are summarized below: The procedure outlined in Example 6 was followed substituting a Group IV compound for those of Group I. The table below provides a summary of results.
# flies (family Muscidae) [3] = test: Chemosterilancy tests (egg hatch and pupal development; Examples 6-9); format: in vivo
# Procedure: as §1, §2
# The procedure outlined in Example 6 was followed using a Group II compound.
# The procedure outlined in Example 6 was followed using Group III compounds. The results are summarized below:
# The procedure outlined in Example 6 was followed substituting a Group IV compound for those of Group I. The table below provides a summary of results.
# [4] = tested on: Salmonella tester strains TA-100, TA-98, TA-1537; test: Ames' Salmonella/microsome mutagenicity procedure
# Procedure: The mutagenic activity of D, A, B, M, N, and CC were tested by the standard Ames' Salmonella/microsome procedure, which is reported to show better than 90% correlation with development of mammalian cancers (Ames et al., Mutation Research, Vol. 31, p. 347, 1975; McCann et al., Proc. Nat. Acad. Sci., Vol. 72, p. 5135, 1975). Tester strains TA-100, TA-98, TA-1537 and the plate test method were used, employing concentrations of 10, 100, 1000, and 10,000 […]. The metabolic activation mixture (S-9 mix) used the 9000 times g supernatant of Arochlor-1254-induced rat liver homogenate at a level of 100 μl per ml of S-9 mix.
# screwworm flies = test: Anti-procreant tests on screw-worm fly; format: in vivo; conditions: 0.10% in food
# Procedure: These tests were conducted on mass-reared screwworm flies which had been obtained as pupae from the screwworm fly plant at Mission, Texas. The flies were held in cages with water and undiluted corn syrup in a colony room maintained at about 27° C. and 60% relative humidity (RH) with a 12-hour photoperiod beginning at 6 a.m. Adults that emerged were lightly anesthetized with CO2 for ease of manipulation the same day.
# The mixtures obtained were fed to the flies in "Dixie" paper cups, 7 cm diameter, and rice hulls were placed on the surface of the food to prevent the flies from getting stuck in the viscous mixture.
# Initially, varying concentrations of a chemosterilant were fed to the flies for the first 5 days of life. Thereafter, the chemosterilant was replaced with pure corn syrup. On the 7th day, 3 replicates of 10 flies were stimulated to oviposit and the flies which oviposited were checked for insemination by an examination of the spermathecae for live sperms. The total number of eggs per fly was estimated and the hatchability of these eggs (fertility) was determined 24 hours later (at 37° C.). Observations were made to determine percentage of egg hatch.
# Solubility in water = format: physicochemical
# [5] = tested on: early fourth-stage larvae of the common malaria mosquito (Anopheles quadrimaculatus); test: Growth-inhibition tests on mosquito larvae; format: in vivo; conditions: in water; corrected by Abbott's formula
# Procedure: The compound to be tested was added to one liter of water until the final concentration thereof was a growth-inhibiting amount. Fifty early fourth-stage larvae of the common malaria mosquito (Anopheles quadrimaculatus) were placed on this water. Larval food was administered daily. Dead larvae and pupae were removed, counted, and discarded daily. Live pupae were removed, rinsed, and transferred to a cup of distilled water. The cup was placed in an emergence cage, and the emerging adults, if any, were maintained on a sugar-water diet.
# The effectiveness of the compound in inhibiting growth was determined by adding the number of dead larvae and pupae and the number of adults that were dead, unable to complete eclosion, and malformed. This sum was corrected by Abbott's formula (to adjust for the number of larvae or pupae which would die naturally) and designated as the GI (growth inhibition). The results are expressed as GI-90, i.e., the concentration of growth inhibitor in ppm that would prevent and/or retard growth in 90% of the treated larvae.
compound,measurement,setting,value
"CCCCOc1cc2c(cc1C(C)(C)c1ccccc1)OCO2 [AA, (α, 60 -Dimethylbenzyl)-3,4-methylenedioxy-6-n-butoxybenzene]",inducing sexual sterility or inhibiting oviposition,flies (family Muscidae) [1],ineffective
"CCCOc1cc2c(cc1Cc1ccc(OC)cc1)OCO2 [N, (4-Methoxybenzyl)-3,4-methylenedioxy-6n-propoxybenzene]","Mortality, parent generation",flies (family Muscidae) [2]; 0.05% in food,0%
same,"Mortality, parent generation",flies (family Muscidae) [2]; 0.1% in food,0%
same,"Mortality, parent generation",flies (family Muscidae) [2]; 0.25% in food,75%
same,Egg hatch,flies (family Muscidae) [3]; 0.05% in food,33%
same,Pupal development,flies (family Muscidae) [3]; 0.05% in food,33%
same,Egg hatch,flies (family Muscidae) [3]; 0.1% in food,0%
same,Pupal development,flies (family Muscidae) [3]; 0.1% in food,0%
same,mutagenic activity,"[4]; TA-100, TA-98, TA-1537, without or with metabolic activation",non-mutagenic
"COc1ccc(Cc2cc3c(cc2O)OCO3)cc1 [6-(4-methoxybenzyl)-3,4-methylenedioxyphenol, reference compound]",activity in the method of the invention (ineffective compounds),flies (family Muscidae) [1],ineffective
"COc1ccc(C(C)c2cc(C(C)(C)C)c(O)c(C(C)(C)C)c2)cc1 (stereo not drawn) [Compound G, 2,6-Di-t-butyl-4-(α-methyl-4-methoxybenzyl)phenol]",inducing sexual sterility or inhibiting oviposition,flies (family Muscidae) [1],ineffective
same,activity in the method of the invention (ineffective compounds),flies (family Muscidae) [1],ineffective
"CC(C)(C)c1cc(C(C)(C)c2ccccc2)cc(C(C)(C)C)c1O [4-(α,α-dimethylbenzyl)-2,6-di-t-butylphenol, reference compound]",activity in the method of the invention (ineffective compounds),flies (family Muscidae) [1],ineffective
"(α,α-Dimethylbenzyl)-3,4-methylenedioxy-6-methoxybenzene",inducing sexual sterility or inhibiting oviposition,flies (family Muscidae) [1],ineffective
"(α-Vinylbenzyl)-3,4-methylenedioxy-6-n-propoxybenzene [GG]",inducing sexual sterility or inhibiting oviposition,flies (family Muscidae) [1],ineffective
"CC(C)(C)c1ccc(O)c(Cc2ccccc2)c1 [2-benzyl-4-t-butylphenol, reference compound]",inducing sexual sterility or inhibiting oviposition,flies (family Muscidae) [1],ineffective
same,activity in the method of the invention (ineffective compounds),flies (family Muscidae) [1],ineffective
"CCOc1cc2c(cc1Cc1ccc(OC)cc1)OCO2 [M, (4-Methoxybenzyl)-3,4-methylenedioxy-6-ethoxybenzene]","Mortality, parent generation",flies (family Muscidae) [2]; 0.01% in food,0%
same,"Mortality, parent generation",flies (family Muscidae) [2]; 0.025% in food,0%
same,"Mortality, parent generation",flies (family Muscidae) [2]; 0.05% in food,0%
same,"Mortality, parent generation",flies (family Muscidae) [2]; 0.1% in food,0%
same,Egg hatch,flies (family Muscidae) [3]; 0.01% in food,19%
same,Pupal development,flies (family Muscidae) [3]; 0.01% in food,19%
same,Egg hatch,flies (family Muscidae) [3]; 0.025% in food,0%
same,Pupal development,flies (family Muscidae) [3]; 0.025% in food,0%
same,Egg hatch,flies (family Muscidae) [3]; 0.05% in food,0%
same,Pupal development,flies (family Muscidae) [3]; 0.05% in food,0%
same,Inhibition of embryogenesis,screwworm flies,99.8%
same,Oviposition,screwworm flies,55.0%
same,"Survival, Female",screwworm flies,88.7%
same,"Survival, Male",screwworm flies,35.0%
same,revertant frequencies,"[4]; 10-10,000 μg/plate in TA-100 and S-9",exceeded the mean control value plus two or three standard deviations
same,mutagenic response relative to known mutagenic agents which revert this strain,[4]; TA-100 and S-9,extremely weak
same,solubility in water,Solubility in water,low solubility in water
"2-(4-methoxybenzyl)-3,4-methylenedioxyphenol [reference compound]",inducing sexual sterility or inhibiting oviposition,flies (family Muscidae) [1],ineffective
"CC(c1ccccc1)c1cc(C(C)(C)C)ccc1O (stereo not drawn) [2-(α-methylbenzyl)-4-t-butylphenol, reference compound]",inducing sexual sterility or inhibiting oviposition,flies (family Muscidae) [1],ineffective
same,activity in the method of the invention (ineffective compounds),flies (family Muscidae) [1],ineffective
"COc1ccc(Cc2cc(C(C)(C)C)c(O)c(C(C)(C)C)c2)cc1 [F, 2,6-Di-t-butyl-4-(4-methoxybenzyl)phenol]",inducing sexual sterility or inhibiting oviposition,flies (family Muscidae) [1],ineffective
same,activity in the method of the invention (ineffective compounds),flies (family Muscidae) [1],ineffective
same,GI-90 (concentration of growth inhibitor that would prevent and/or retard growth in 90% of the treated larvae),[5],0.042 ppm
"CC(c1ccccc1)c1cc(C(C)(C)C)c(O)c(C(C)(C)C)c1 (stereo not drawn) [E, 2,6-Di-t-butyl-4-(α-methylbenzyl)phenol]","Mortality, parent generation",flies (family Muscidae) [2]; 0.1% in food,0%
same,"Mortality, parent generation",flies (family Muscidae) [2]; 0.25% in food,0%
same,"Mortality, parent generation",flies (family Muscidae) [2]; 0.5% in food,0%
same,"Mortality, parent generation",flies (family Muscidae) [2]; 1.0% in food,0%
same,Oviposition,flies (family Muscidae) [2]; 1.0% in food,Normal
same,Egg hatch,flies (family Muscidae) [3]; 0.1% in food,36%
same,Pupal development,flies (family Muscidae) [3]; 0.1% in food,36%
same,Egg hatch,flies (family Muscidae) [3]; 0.25% in food,0%
same,Pupal development,flies (family Muscidae) [3]; 0.25% in food,0%
same,Egg hatch,flies (family Muscidae) [3]; 0.5% in food,0%
same,Pupal development,flies (family Muscidae) [3]; 0.5% in food,0%
same,Egg hatch,flies (family Muscidae) [3]; 1.0% in food,0%
same,Pupal development,flies (family Muscidae) [3]; 1.0% in food,0%
same,GI-90 (concentration of growth inhibitor that would prevent and/or retard growth in 90% of the treated larvae),[5],0.072 ppm
"CCCCCOc1cc2c(cc1C(C)c1ccc(OC)cc1)OCO2 (stereo not drawn) [K, (α-methyl-4-methoxybenzyl)-3,4-methylenedioxy-6-n-pentoxybenzene]","Mortality, parent generation",flies (family Muscidae) [2]; 0.1% in food,0%
same,"Mortality, parent generation",flies (family Muscidae) [2]; 0.25% in food,0%
same,"Mortality, parent generation",flies (family Muscidae) [2]; 0.5% in food,0%
same,"Mortality, parent generation",flies (family Muscidae) [2]; 1.0% in food,0%
same,Egg hatch,flies (family Muscidae) [3]; 0.1% in food,70%
same,Pupal development,flies (family Muscidae) [3]; 0.1% in food,70%
same,Egg hatch,flies (family Muscidae) [3]; 0.25% in food,0%
same,Pupal development,flies (family Muscidae) [3]; 0.25% in food,0%
same,Egg hatch,flies (family Muscidae) [3]; 0.5% in food,0%
same,Pupal development,flies (family Muscidae) [3]; 0.5% in food,0%
same,Egg hatch,flies (family Muscidae) [3]; 1.0% in food,0%
same,Pupal development,flies (family Muscidae) [3]; 1.0% in food,0%
same,GI-90 (concentration of growth inhibitor that would prevent and/or retard growth in 90% of the treated larvae),[5],0.060 ppm
"COc1ccc(Cc2cc3c(cc2OCC(C)C)OCO3)cc1 [Q, (4-Methoxybenzyl)-3,4-methylenedioxy-6-iso-butoxybenzene]","Mortality, parent generation",flies (family Muscidae) [2]; 0.05% in food,0%
same,"Mortality, parent generation",flies (family Muscidae) [2]; 0.1% in food,0%
same,"Mortality, parent generation",flies (family Muscidae) [2]; 0.25% in food,0%
same,"Mortality, parent generation",flies (family Muscidae) [2]; 0.5% in food,90%
same,Egg hatch,flies (family Muscidae) [3]; 0.05% in food,28%
same,Pupal development,flies (family Muscidae) [3]; 0.05% in food,28%
same,Egg hatch,flies (family Muscidae) [3]; 0.1% in food,0%
same,Pupal development,flies (family Muscidae) [3]; 0.1% in food,0%
same,Egg hatch,flies (family Muscidae) [3]; 0.25% in food,0%
same,Pupal development,flies (family Muscidae) [3]; 0.25% in food,0%
same,GI-90 (concentration of growth inhibitor that would prevent and/or retard growth in 90% of the treated larvae),[5],0.082 ppm
